This note sets out measurements from ChEMBL document CHEMBL5727940, “Substituted piperazines as selective HDAC1,2 inhibitors” (2020).

The target of this data set is hERG (KCNH2) (Homo sapiens, UniProt Q12809). The data set is described as follows: hERG inhibition assays: For hERG inhibition assays, the cells used were HEK293 cells stably transfected with hERG (cell line obtained from Cytocentrics Inc. 3463 Magic Drive San Antonio, Tex. 78229). Composition of External Solution: NaCl, 137 mM; KCl, 4 mM; MgCl2, 1.0 mM; CaCl2, 1.8 mM; HEPES 10 mM; Dextrose 11 mM; Adjusted to a pH of 7.4 with NaOH. Composition of Internal Solution: KCl, 130.0 mM. The following applies: pH 7.4. (hERG is a cardiac potassium channel; its block is linked to QT prolongation.)
hERG (KCNH2), sequence (Q12809 whole entry): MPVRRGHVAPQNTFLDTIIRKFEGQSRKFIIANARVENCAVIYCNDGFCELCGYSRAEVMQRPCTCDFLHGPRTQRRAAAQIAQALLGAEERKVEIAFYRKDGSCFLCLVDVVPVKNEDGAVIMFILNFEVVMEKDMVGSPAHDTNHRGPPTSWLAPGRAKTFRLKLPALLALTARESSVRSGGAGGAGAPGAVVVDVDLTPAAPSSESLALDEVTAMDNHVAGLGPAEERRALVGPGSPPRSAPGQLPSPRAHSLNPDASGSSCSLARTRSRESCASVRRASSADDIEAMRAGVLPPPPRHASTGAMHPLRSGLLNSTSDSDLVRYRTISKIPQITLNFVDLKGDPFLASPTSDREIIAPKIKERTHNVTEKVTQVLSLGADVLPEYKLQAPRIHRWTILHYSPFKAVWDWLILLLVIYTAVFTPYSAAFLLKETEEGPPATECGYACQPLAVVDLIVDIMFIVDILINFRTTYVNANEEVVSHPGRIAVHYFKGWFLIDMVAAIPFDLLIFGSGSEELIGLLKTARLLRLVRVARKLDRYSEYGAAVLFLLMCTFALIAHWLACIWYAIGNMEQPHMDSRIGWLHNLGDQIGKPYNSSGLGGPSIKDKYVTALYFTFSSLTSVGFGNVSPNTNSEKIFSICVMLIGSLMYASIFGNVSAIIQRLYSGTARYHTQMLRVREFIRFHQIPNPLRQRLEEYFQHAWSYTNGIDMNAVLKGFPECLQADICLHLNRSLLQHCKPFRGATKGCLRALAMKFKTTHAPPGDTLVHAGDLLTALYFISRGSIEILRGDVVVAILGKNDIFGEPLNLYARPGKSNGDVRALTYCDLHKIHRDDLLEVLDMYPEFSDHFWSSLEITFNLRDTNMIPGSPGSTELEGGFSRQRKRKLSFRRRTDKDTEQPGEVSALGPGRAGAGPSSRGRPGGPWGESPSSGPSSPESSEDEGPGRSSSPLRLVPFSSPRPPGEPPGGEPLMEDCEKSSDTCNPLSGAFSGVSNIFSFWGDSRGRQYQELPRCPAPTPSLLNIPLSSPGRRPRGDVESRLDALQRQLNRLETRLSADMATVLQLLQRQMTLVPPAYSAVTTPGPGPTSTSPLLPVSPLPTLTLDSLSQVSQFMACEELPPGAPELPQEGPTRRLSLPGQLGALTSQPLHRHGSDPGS

One may read the IC50 as the concentration that gives 50% inhibition. The compound `Nc1ccc(-c2cccs2)cc1NC(=O)c1ncc(N2CCNCC2)s1` showed an IC50 of 3.6 µM.
